Data reported in PMC10732280 (2023).

What was measured:
[1] = tested on: S100P i-motif (DNA, i motif) TCCCAACCCCACTGTCCCACCCT; test: CD melting; conditions: K+ 100 mM, Li+ 10 mM; 10 mM lithium cacodylate pH 5.5; 10 μM DNA; 50 μM compound (5 eq.); destabilising
[2] = tested on: DAP i-motif (DNA, i motif) CCCCCGCCCCCGCCCCCGCCCCCGCCCCCG; test: CD melting; conditions: K+ 100 mM, Li+ 10 mM; 10 mM lithium cacodylate pH 5.5; 10 μM DNA; 50 μM compound (5 eq.); destabilising
[3] = tested on: hTelo i-motif (DNA, i motif) TAACCCTAACCCTAACCCTAACCC; test: CD melting; conditions: K+ 100 mM, Li+ 10 mM; 10 mM lithium cacodylate pH 5.5; 10 μM DNA; 50 μM compound (5 eq.); destabilising
[4] = tested on: ILPR i-motif (DNA, i motif) TGTCCCCACACCCCTGTCCCCACACCCCTGT; test: CD melting; conditions: K+ 100 mM, Li+ 10 mM; 10 mM lithium cacodylate pH 5.5; 10 μM DNA; 50 μM compound (5 eq.); destabilising
[5] = tested on: S100P G-quadruplex (DNA, G4) AGGGTGGGACAGTGGGGTTGGGA; test: UV-vis titration of ligand with DNA; conditions: K+ 100 mM, Li+ 10 mM; 10 mM lithium cacodylate; DNA at pH 7, ligand stock buffer pH 5.5; analysis method 1 (method 2: 1.5 ± 0.2)
[6] = tested on: S100P i-motif (DNA, i motif) TCCCAACCCCACTGTCCCACCCT; test: UV-vis titration of ligand with DNA; conditions: K+ 100 mM, Li+ 10 mM; 10 mM lithium cacodylate pH 5.5; 5 μM ligand; analysis method 1 (method 2: 10.8 ± 2.9)
[7] = tested on: S100P i-motif (DNA, i motif) TCCCAACCCCACTGTCCCACCCT; test: CD titration, Hill fit of ellipticity at 288 nm; conditions: K+ 100 mM, Li+ 10 mM; 10 mM lithium cacodylate pH 5.5; 10 μM DNA; i-motif unfolding; Hill n 2.3 ± 0.2

`O=C1c2cc(-c3ccc(CN4CCCC4)cc3)c3c4c(cc(NCCN5CCCC5)c(c24)C(=O)N1CCCN1CCOCC1)C(=O)N(CCCN1CCOCC1)C3=O` was tested, and the ΔTm [1] was −20.7 ± 1.1 °C, the ΔTm [2] was -21.6 ± 1.1 °C and the ΔTm [3] was -16.6 ± 0.7 °C. For the same compound, the ΔTm [4] was -18.8 ± 0.4 °C, the Kd [5] was 2.0 ± 0.3 µM and the Kd [6] was 11.7 ± 2.9 µM. For the same compound, the “[D]50%” value [7] was 31 ± 4 µM.
